Reference: patent US12268723B2, “Peptidomimetics for the treatment of coronavirus and picorna virus infections” (priority 2019, dated 2025)
Read-outs that look alike come from different tables or passages of the source.

Legend:
[1] = Cytotoxicity (MTS) in RD cells; assay type: cell-based, human; conditions: human, RD (rhabdomyosarcoma) cells
Procedure: Compounds are tested for cytotoxicity using a MTS (3-(4,5-dimethylthiazol-2-yl)-5-(3-carboxymethoxyphenyl)-2-(4-sulfophenyl)-2H-tetrazolium) method and the CC50 (IC50) values (cytotoxic concentrations of drug required to reduce cell viability by 50%) are determined for each test compound in human rhabdomyosarcoma (RD) cell line. In addition, the maximum non-toxic concentrations (MNTC) are also determined for each compound. To avoid potential drug toxicity that would interfere with viral cytopathic effect (CPE), compounds are evaluated at nontoxic concentrations. The resultant inhibitory effect of each test compound is calculated as a percentage of decrease in EV-71 CPE. Briefly, a monolayer of RD cells is prepared in a 96-well plates. The cells are then infected with 1 MOI of EV-71 (BrCr strain) followed by treatment with a single non-toxic dose of each compound in triplicate. The vehicle control wells are treated with 0.1% DMSO diluted in the working media. […] The dose-response antiviral activity of each compound is determined by a virus yield reduction assay method. Briefly, confluent monolayers of RD cells in 96-wells microplate are infected with 0.1 MOI of EV-71 followed by treatment with compounds. […] Quantitative PCR measurement was performed using StepOnePlus real time PCR system ([…]) according to manufacturer's protocol.

[2] = tested on: Enterovirus EV-71 (BrCr strain); test: Anti-enterovirus activity, EV-71 virus yield reduction (qRT-PCR) in RD cells; assay type: cell-based; conditions: for EC50 / EC90: 0.1 MOI, 2 days post-treatment; for EC50: read-out: EC50 against Enterovirus EV-71 (BrCr strain); for EC90: read-out: EC90 against Enterovirus EV-71 (BrCr strain); for IC50: given as IC50, read-out: IC50 against Enterovirus EV-71 (BrCr strain); for IC90: given as IC90, read-out: IC90 against Enterovirus EV-71 (BrCr strain)
Procedure: Compounds are tested for cytotoxicity using a MTS (3-(4,5-dimethylthiazol-2-yl)-5-(3-carboxymethoxyphenyl)-2-(4-sulfophenyl)-2H-tetrazolium) method and the CC50 (IC50) values (cytotoxic concentrations of drug required to reduce cell viability by 50%) are determined for each test compound in human rhabdomyosarcoma (RD) cell line. In addition, the maximum non-toxic concentrations (MNTC) are also determined for each compound. To avoid potential drug toxicity that would interfere with viral cytopathic effect (CPE), compounds are evaluated at nontoxic concentrations. The resultant inhibitory effect of each test compound is calculated as a percentage of decrease in EV-71 CPE. Briefly, a monolayer of RD cells is prepared in a 96-well plates. The cells are then infected with 1 MOI of EV-71 (BrCr strain) followed by treatment with a single non-toxic dose of each compound in triplicate. The vehicle control wells are treated with 0.1% DMSO diluted in the working media. The plate is then incubated for 48 h at which time the virus-control wells produced detectable CPE. To determine the probable CPE inhibitory effect of test compounds, an MTS assay is performed and effective compounds are chosen for further studies to identify the potency of the compounds and their concentration-dependent manner. The dose-response antiviral activity of each compound is determined by a virus yield reduction assay method. Briefly, confluent monolayers of RD cells in 96-wells microplate are infected with 0.1 MOI of EV-71 followed by treatment with compounds. Effective compounds are further quantified and confirmed with a virus-yield-reduction assay using an optimized in house qRT-PCR to determine the EV-71 RNA copy number after 2 days post-treatment from collected supernatants. qRT-PCR is performed using the EV-71 specific probe/primer mix and qScript-Tough master mix (Quantibio, USA). Quantitative PCR measurement was performed using StepOnePlus real time PCR system ([…]) according to manufacturer's protocol. The median effective concentration (EC50) and the concentration with 90% of inhibitory effect (EC90) are calculated using GraphPad PRISM for Windows, version 5 (GraphPad Software Inc., San Diego, CA, 2005) as the means±standard deviation (SD) of the mean from triplicate assay from three independent experiments.

HCoV (OC43) = test: In vitro assay for HCoV (OC43), virus yield reduction in Huh7 cells; assay type: cell-based; conditions: Betacoronavirus 1, OC43, Huh-7, 10 μM
From the text: In order to determine the potential effect of each selected compound against in vitro replication of SARS-CoV-2 in Vero cells or HCoV (OC43) in Huh7 cells, a confluent cell monolayer in a 96-wells cell culture microplate can be infected at a multiplicity of infection (MOI) of 0.1 and treated with a maximum non-toxic concentration (MNTC) of each compound. To assess the antiviral activity, a virus yield reduction assay using specific qRT-PCR for each virus can be performed.
Dose-Dependent Antiviral Assay. The antiviral effect of each compound selected through the antiviral evaluation assay can be further confirmed by virus yield reduction assay using the optimized qRT-PCR by measuring the RNA copy number for each virus in the supernatant of treated-infected cells. A positive control, such as remdesivir, can be used for each assay.
Statistical analysis. The half-maximal effective concentration (EC50) and the concentration with 90% of inhibitory effect (EC90) can be calculated using GraphPad PRISM for Windows, version 5 (GraphPad Software Inc., San Diego, CA, 2005) or the Chou and Talalay Method.
These methods were used to evaluate certain of the compounds described herein.

SARS-CoV-2 = test: microbe, parasite or virus in culture; assay type: cell-based; conditions: for inhibition at 10 µM: read-out: SARS-CoV-2 Inhibition at 10 μM (%); for EC50 / EC90: unit inferred; for EC50: read-out: Activity against SARS-CoV-2 EC50; for EC90: read-out: Activity against SARS-CoV-2 EC90
[3] = Severe acute respiratory syndrome coronavirus 2, 10 μM, Vero cells
[4] = Severe acute respiratory syndrome coronavirus 2, Vero cells

Cc1cc(C(=O)N[C@@H](Cc2ccc(F)cc2)C(=O)N[C@@H](CC(C)C)C(=O)N[C@H](C=O)C[C@@H]2CCCNC2=O)no1
CC50 [1]: > 100 µM | EC50 ([2]; RD, 48 h): 9.4 nM | EC90 ([2]; RD, 48 h): 16.6 nM

CC(C)C[C@H](NC(=O)[C@H](Cc1cccc2ccccc12)NC(=O)c1cnccn1)C(=O)N[C@H](C=O)C[C@@H]1CCNC1=O
CC50 [1]: > 100 µM | IC50 [2]: 17.2 nM | IC90 [2]: 64 nM

CC(C)C[C@H](NC(=O)[C@H](Cc1cccc2ccccc12)NC(=O)c1cnccn1)C(=O)N[C@H](C=O)C[C@@H]1CCCNC1=O
CC50 [1]: > 100 µM | EC50 ([2]; RD, 48 h): 15.8 nM | EC90 ([2]; RD, 48 h): 47.5 nM

Cc1cc(C(=O)N[C@@H](Cc2cccc3ccccc23)C(=O)N[C@@H](CC(C)C)C(=O)NC(C=O)C[C@@H]2CCCNC2=O)no1 (single isomer, unassigned)
CC50 [1]: > 100 µM | EC50 [2]: 1.7 nM | EC90 [2]: 7.5 nM

CC(C)C[C@H](NC(=O)[C@H](Cc1cccc2ccccc12)NC(=O)OCc1ccccc1)C(=O)N[C@H](/C=C(\C#N)C(N)=O)C[C@@H]1CCCNC1=O [Compound 36, Benzyl ((S)-1-(((S)-1-(((S,E)-5-amino-4-cyano-5-oxo-1-((S)-2-oxopiperidin-3-yl)pent-3-en-2-yl)amino)-4-methyl-1-oxopentan-2-yl)amino)-3-(naphthalen-1-yl)-1-oxopropan-2-yl)carbamate]
inhibition at 10 µM (HCoV (OC43)): 99.9% | inhibition at 10 µM (SARS-CoV-2; [3]): 99.8%

CC(C)C[C@H](NC(=O)[C@H](Cc1cccc2ccccc12)NC(=O)OCc1ccccc1)C(=O)N[C@@H](C[C@@H]1CCCNC1=O)C(O)S(=O)(=O)O (stereo partly drawn) [Compound 37, Sodium (5S,8S, 11S)-12-hydroxy-8-isobutyl-5-(naphthalen-1-ylmethyl)-3,6,9-trioxo-11-(((S)-2-oxopiperidin-3-yl)methyl)-1-phenyl-2-oxa-4,7,10-triazadodecane-12-sulfonate]
inhibition at 10 µM (HCoV (OC43)): 99.9% | inhibition at 10 µM (SARS-CoV-2; Severe acute respiratory syndrome coronavirus 2, Vero): 99.9% | EC50 (SARS-CoV-2; [4]): 300 nM | EC90 (SARS-CoV-2; [4]): 4.5 µM

CC(C)C[C@H](NC(=O)[C@H](Cc1cccc2ccccc12)NC(=O)OCc1ccccc1)C(=O)N[C@@H](C[C@@H]1CCCNC1=O)C(=O)C(F)(F)F [Compound 39, Benzyl ((S)-1-(((S)-4-methyl-1-oxo-1-(((S)-4,4,4-trifluoro-3-oxo-1-((S)-2-oxopiperidin-3-yl)butan-2-yl)amino)pentan-2-yl)amino)-3-(naphthalen-1-yl)-1-oxopropan-2-yl)carbamate]
inhibition at 10 µM (HCoV (OC43)): 99.4% | inhibition at 10 µM (SARS-CoV-2; [3]): 68%

Cc1cc(C(=O)N[C@@H](Cc2cccc3ccccc23)C(=O)N[C@@H](CC(C)C)C(=O)N[C@H](C=O)C[C@@H]2CCCNC2=O)no1 [Compound 91, 5-Methyl-N—((S)-1-(((S)-4-methyl-1-oxo-1-(((S)-1-oxo-3-((S)-2-oxopiperidin-3-yl)propan-2-yl)amino)pentan-2-yl)amino)-3-(naphthalen-1-yl)-1-oxopropan-2-yl)isoxazole-3-carboxamide]
EC50 (SARS-CoV-2; [4]): 600 nM | EC90 (SARS-CoV-2; [4]): 2.3 µM

CC(C)C[C@H](NC(=O)[C@H](Cc1cccc2ccccc12)NC(=O)OCc1ccccc1)C(=O)N[C@@H](C[C@@H]1CCCNC1=O)C(=O)C(F)(F)F [drawing 122]
CC50 [1]: 65 µM | EC50 ([2]; RD, 48 h): 320 nM | EC90 ([2]; RD, 48 h): 580 nM

CC(C)C[C@H](NC(=O)[C@H](Cc1cccc2ccccc12)NC(=O)OCc1ccccc1)C(=O)N[C@@H](C[C@@H]1CCCNC1=O)C(O)C(F)(F)F (stereo partly shown) [drawing 125]
CC50 [1]: 25 µM | EC50 ([2]; RD, 48 h): 310 nM | EC90 ([2]; RD, 48 h): 580 nM

CC(C)C[C@H](NC(=O)[C@H](Cc1cccc2ccccc12)NC(=O)OCc1ccccc1)C(=O)N[C@@H](C[C@@H]1CCCNC1=O)C(O)S(=O)(=O)O (stereo partly shown) [drawing 134]
CC50 [1]: 95 µM | IC50 [2]: 11.8 nM | IC90 [2]: 30 nM

CC(C)C[C@H](NC(=O)[C@H](Cc1ccc(F)cc1)NC(=O)OCc1ccccc1)C(=O)N[C@H](C=O)C[C@@H]1CCCNC1=O [drawing 135]
CC50 [1]: > 100 µM | IC50 [2]: 10.3 nM | IC90 [2]: 29.1 nM
